In patent US9963455B2, “Pyrazolo[1,5-a]pyrimidines as antiviral compounds” (Curovir AB, priority 2014, dated 2018):
Read-outs that look alike come from different tables or passages of the source.

What was measured:
Type in all cases: cell-based
[1] = tested on: Enterovirus strain 30; assay: CPE inhibition in mammalian cell culture, EV30; parameters: inhibition: dose or concentration left out as unconfirmed; details: for inhibition at 5 µM: Conc. 5 µM; for inhibition at 2.5 µM: Conc. 2.5 µM; for inhibition at 100 µM: Conc. 0.1 mM
[2] = tested on: coxsackie B virus strain 4; assay: CPE inhibition in mammalian cell culture, Cox-B4
[3] = tested on: Ljungan virus strain 012; assay: CPE inhibition in mammalian cell culture, LV012; details: Parechovirus B; for inhibition at 5 µM: Conc. 5 µM; for inhibition at 100 µM: Conc. 0.1 mM
[4] = tested on: Enterovirus strain 6; assay: microbe, parasite or virus in culture; parameters: inhibition: dose or concentration left out as unconfirmed; details: for inhibition: read-out: antiviral effect, EV6
[5] = tested on: Human parechovirus strain 1; assay: CPE inhibition in mammalian cell culture, HPeV-1; details: Parechovirus A; for inhibition at 5 µM: Conc. 5 µM; for inhibition at 2.5 µM: Conc. 2.5 µM
[6] = tested on: polio virus strain 1; assay: microbe, parasite or virus in culture; parameters: inhibition: dose or concentration left out as unconfirmed; details: read-out: antiviral effect, Polio 1
[7] = tested on: coxsackie B virus strain 3; assay: CPE inhibition in mammalian cell culture, Cox-B3; parameters: inhibition: dose or concentration left out as unconfirmed
[8] = tested on: coxsackie B virus strain 1; assay: CPE inhibition in mammalian cell culture, Cox-B1; parameters: inhibition: dose or concentration left out as unconfirmed
[9] = tested on: coxsackie B virus strain 2; assay: CPE inhibition in mammalian cell culture, Cox-B2; parameters: inhibition: dose or concentration left out as unconfirmed; details: read-out: antiviral effect, B2
[10] = tested on: coxsackie B virus strain 5; assay: CPE inhibition in mammalian cell culture, Cox-B5; parameters: inhibition: dose or concentration left out as unconfirmed
[11] = tested on: encephalomyocarditis virus; assay: CPE inhibition in mammalian cell culture, EMCV; parameters: inhibition: dose or concentration left out as unconfirmed; details: Cardiovirus A; for inhibition at 10 µM: Conc. 10.0 μM; for inhibition at 100 µM: Conc. 0.1 mM
[12] = tested on: Ljungan virus strain 145; assay: CPE inhibition in mammalian cell culture, LV145; parameters: inhibition: dose or concentration left out as unconfirmed; details: Parechovirus B; for inhibition at 100 µM: Conc. 0.1 mM
[13] = tested on: Enterovirus strain 71; assay: CPE inhibition in mammalian cell culture, EV71; parameters: inhibition: dose or concentration left out as unconfirmed; details: read-out: antiviral effect, EV71; for inhibition at 100 µM: Conc. 0.1 mM
[14] = read-out: antiviral effect, EV30
[15] = read-out: antiviral effect, LV012
[16] = read-out: antiviral effect, HPeV-1
[17] = Conc. 2.5 µM, read-out: antiviral effect, LV012
[18] = HPeV-1, Conc. 10.0 μM, read-out: % inh.
[19] = read-out: antiviral effect, EMCV
[20] = read-out: antiviral effect, LV145

Compound: COc1ccc(-c2c(C)nn3c(NCc4ccc(Cl)cc4)cc(C)nc23)cc1OC [Ex. 1, N-[(4-chlorophenyl)methyl]-3-(3,4-dimethoxyphenyl)-2,5-dimethyl-pyrazolo[1,5-a]pyrimidin-7-amine]
- inhibition at 5 µM [1, 14]: 100%
- inhibition at 5000 µM ([2]; read-out: antiviral effect, B4): 86%
- inhibition at 5 µM [3, 15]: 34%
- inhibition ([4]; Conc.): 90%
- inhibition at 0.25 µM ([4]; read-out: % inh.): 75%
- inhibition at 5 µM [5, 16]: 14%
- inhibition at 5000 µM [6]: 31%
- inhibition at 5000 µM ([7]; read-out: antiviral effect, B3): 95%
- inhibition at 5000 µM ([8]; read-out: antiviral effect, B1): 93%
- inhibition at 5000 µM [9]: 60%
- inhibition at 5000 µM ([10]; read-out: antiviral effect, B5): 90%

Compound: COc1ccc(CNc2cc(C)nc3c(-c4ccc(OC)c(OC)c4)c(C)nn23)cc1 [Ex. 2, 3-(3,4-dimethoxyphenyl)-N-[(4-methoxyphenyl)methyl]-2,5-dimethyl-pyrazolo[1,5-a]pyrimidin-7-amine]
- inhibition at 5 µM [1, 14]: 91%
- inhibition at 0.25 µM ([1]; EV30, Conc. 0.25 μM): 85%
- inhibition at 5000 µM ([2]; read-out: antiviral effect, B4): 86%
- inhibition at 5 µM [3, 15]: 49%
- inhibition ([4]; Conc.): 83%
- inhibition at 5 µM [5, 16]: 0%
- inhibition at 5000 µM [6]: 90%
- inhibition at 5000 µM ([7]; read-out: antiviral effect, B3): 97%
- inhibition at 5000 µM ([8]; read-out: antiviral effect, B1): 91%
- inhibition at 5000 µM [9]: 93%
- inhibition at 5000 µM ([10]; read-out: antiviral effect, B5): 91%

Compound: Cc1cc(NC(C)c2ccccc2)n2nc(C)c(-c3ccc(F)cc3)c2n1 (stereo not shown) [Ex. 3, 3-(4-fluorophenyl)-2,5-dimethyl-N-(1-phenylethyl)pyrazolo[1,5-a]pyrimidin-7-amine]
- inhibition at 2.5 µM ([11]; EMCV, Conc. 2.5 μM): 92%

Compound: COc1ccc(-c2c(C)nn3c(NCCc4ccc(Cl)cc4)cc(C)nc23)cc1OC [Ex. 5, N-[2-(4-chlorophenyl)ethyl]-3-(3,4-dimethoxyphenyl)-2,5-dimethyl-pyrazolo[1,5-a]pyrimidin-7-amine]
- inhibition at 5 µM [1, 14]: 58%
- inhibition at 0.25 µM ([2]; read-out: % inh.): 71%
- inhibition at 5000 µM ([2]; read-out: antiviral effect, B4): 97%
- inhibition at 5 µM [3, 15]: 18%
- inhibition ([4]; Conc.): 80%
- inhibition at 5 µM [5, 16]: 22%
- inhibition at 5000 µM [6]: 68%
- inhibition at 5000 µM ([8]; read-out: antiviral effect, B1): 79%
- inhibition at 5000 µM [9]: 76%
- inhibition at 5000 µM ([10]; read-out: antiviral effect, B5): 94%

Compound: COc1ccc(-c2c(C)nn3c(NCCCc4ccccc4)cc(C)nc23)cc1OC [Ex. 7, 3-(3,4-dimethoxyphenyl)-2,5-dimethyl-N-(3-phenylpropyl)pyrazolo[1,5-a]pyrimidin-7-amine]
- inhibition at 2.5 µM [1, 14]: 89%
- inhibition at 2500 µM ([2]; read-out: antiviral effect, B4): 82%
- inhibition at 2.5 µM [3, 17]: 14%
- inhibition at 2.5 µM [5, 16]: 6%
- inhibition at 2500 µM [6]: 80%
- inhibition at 2500 µM ([8]; read-out: antiviral effect, B1): 77%
- inhibition at 2500 µM [9]: 92%
- inhibition at 2500 µM ([10]; read-out: antiviral effect, B5): 68%
- inhibition at 2.5 µM ([12]; LV145, Conc. 2.5 μM): 54%

Compound: COc1ccc(-c2c(C)nn3c(NCc4ccc5c(c4)OCO5)cc(C)nc23)cc1OC [Ex. 8, N-(1,3-benzodioxol-5-ylmethyl)-3-(3,4-dimethoxyphenyl)-2,5-dimethyl-pyrazolo[1,5-a]pyrimidin-7-amine]
- inhibition at 5 µM [1, 14]: 53%
- inhibition at 5000 µM ([2]; read-out: antiviral effect, B4): 89%
- inhibition at 5 µM [3, 15]: 38%
- inhibition ([4]; Conc.): 88%
- inhibition at 5 µM [5, 16]: 14%
- inhibition at 5000 µM [6]: 91%
- inhibition at 5000 µM ([8]; read-out: antiviral effect, B1): 82%
- inhibition at 5000 µM [9]: 100%
- inhibition at 0.25 µM ([10]; read-out: % inh.): 100%
- inhibition at 5000 µM ([10]; read-out: antiviral effect, B5): 100%

Compound: COc1ccc(CCNc2cc(C)nc3c(-c4ccc(OC)c(OC)c4)c(C)nn23)c(OC)c1 [Ex. 12, 3-(3,4-dimethoxyphenyl)-N-[2-(2,4-dimethoxyphenyl)ethyl]-2,5-dimethyl-pyrazolo[1,5-a]pyrimidin-7-amine]
- inhibition at 2.5 µM [1, 14]: 84%
- inhibition at 2500 µM ([2]; read-out: antiviral effect, B4): 77%
- inhibition at 2.5 µM [3, 17]: 60%
- inhibition at 2.5 µM ([3]; LV012, Conc. 2.5 μM, read-out: % inh.): 60%
- inhibition at 2.5 µM [5, 16]: 8%
- inhibition at 2500 µM [6]: 73%
- inhibition at 2500 µM ([8]; read-out: antiviral effect, B1): 93%
- inhibition at 2500 µM ([10]; read-out: antiviral effect, B5): 82%

Compound: Cc1ccc(-c2c(C)nn3c(NCc4ccccn4)cc(C)nc23)cc1 [Ex. 33, 2,5-dimethyl-3-(p-tolyl)-N-(2-pyridylmethyl)pyrazolo[1,5-a]pyrimidin-7-amine]
- inhibition at 10 µM ([1]; Conc. 10 µM, read-out: antiviral effect, EV30): 85%
- inhibition at 1 µM ([1]; EV30, Conc. 1.0 μM, read-out: % inh.): 48%
- inhibition at 10 µM ([5]; Conc. 10 µM, read-out: antiviral effect, HPeV-1): 13%
- inhibition ([11]; Conc., read-out: antiviral effect, EMCV): 60%
- inhibition at 10000 µM [6]: 58%
- inhibition ([13]; Conc.): 0%
- inhibition at 10000 µM [9]: 81%
- inhibition at 10000 µM ([10]; read-out: antiviral effect, B5): 92%
- inhibition ([12]; Conc., read-out: antiviral effect, LV145): 69%

Compound: COc1ccc(-c2c(C)nn3c(NC4CCCC4)cc(C)nc23)cc1OC [Ex. 41, N-cyclopentyl-3-(3,4-dimethoxyphenyl)-2,5-dimethyl-pyrazolo[1,5-a]pyrimidin-7-amine]
- inhibition at 10 µM ([11]; EMCV): 93%

Compound: COc1ccc(-c2c(C)nn3c(Nc4ccccc4)cc(C)nc23)cc1OC [Ex. 57, 3-(3,4-dimethoxyphenyl)-2,5-dimethyl-N-phenyl-pyrazolo[1,5-a]pyrimidin-7-amine]
- inhibition at 10 µM [5, 18]: 22%

Compound: COc1ccc(-c2c(C)nn3c(NCc4ccc(C(F)(F)F)cc4)cc(C)nc23)cc1OC [Ex. 72, 3-(3,4-dimethoxyphenyl)-2,5-dimethyl-N-[[4-(trifluoromethyl)phenyl]methyl]pyrazolo[1,5-a]pyrimidin-7-amine]
- inhibition at 1 µM ([1]; Conc. 1 µM, read-out: antiviral effect, EV30): 100%
- inhibition at 0.1 µM ([2]; read-out: % inh.): 85%
- inhibition at 1000 µM ([2]; read-out: antiviral effect, B4): 91%
- inhibition at 1 µM ([3]; Conc. 1 µM, read-out: antiviral effect, LV012): 0%
- inhibition at 1 µM ([5]; Conc. 1 µM, read-out: antiviral effect, HPeV-1): 4%
- inhibition at 1000 µM [6]: 100%
- inhibition at 1000 µM ([7]; read-out: antiviral effect, B3): 99%
- inhibition at 1000 µM ([8]; read-out: antiviral effect, B1): 100%
- inhibition at 1000 µM [9]: 94%
- inhibition at 1000 µM ([10]; read-out: antiviral effect, B5): 99%

Compound: COc1ccc(-c2c(C)nn3c(Nc4ccc(C(F)(F)F)cc4)cc(C)nc23)cc1OC [Ex. 73, 3-(3,4-dimethoxyphenyl)-2,5-dimethyl-N-[4-(trifluoromethyl)phenyl]pyrazolo[1,5-a]pyrimidin-7-amine]
- inhibition at 0.1 µM ([2]; read-out: % inh.): 44%

Compound: COc1ccc(-c2c(C)nn3c(NCc4ccc(C)nc4)cc(C)nc23)cc1OC [Ex. 92, 3-(3,4-dimethoxyphenyl)-2,5-dimethyl-N-[(6-methyl-3-pyridyl)methyl]pyrazolo[1,5-a]pyrimidin-7-amine]
- inhibition [1, 14]: 100%
- inhibition at 100 µM [3, 15]: 0%
- inhibition at 100 µM [11, 19]: 0%
- inhibition [6]: 98%
- inhibition at 0.01 µM ([7]; read-out: % inh.): 100%
- inhibition ([7]; read-out: antiviral effect, B3): 100%
- inhibition ([8]; read-out: antiviral effect, B1): 100%
- inhibition [9]: 96%
- inhibition ([10]; read-out: antiviral effect, B5): 95%
- inhibition at 100 µM [12, 20]: 0%

Compound: COc1ccc(-c2c(C)nn3c(NCc4ccc(C(C)=O)cc4)cc(C)nc23)cc1OC [Ex. 94, 1-[4-[[[3-(3,4-dimethoxyphenyl)-2,5-dimethyl-pyrazolo[1,5-a]pyrimidin-7-yl]amino]methyl]phenyl]ethanone]
- inhibition at 100 µM [1, 14]: 96%
- inhibition at 100 µM [3, 15]: 12%
- inhibition at 100 µM [11, 19]: 0%
- inhibition [6]: 100%
- inhibition at 100 µM [13]: 100%
- inhibition ([7]; read-out: antiviral effect, B3): 100%
- inhibition at 0.01 µM ([8]; read-out: % inh.): 100%
- inhibition ([8]; read-out: antiviral effect, B1): 100%
- inhibition [9]: 100%
- inhibition ([10]; read-out: antiviral effect, B5): 56%
- inhibition at 100 µM [12, 20]: 0%

Compound: COc1ccc(-c2c(C)nn3c(Nc4ccon4)cc(C)nc23)cc1OC [Ex. 95, N-[3-(3,4-dimethoxyphenyl)-2,5-dimethyl-pyrazolo[1,5-a]pyrimidin-7-yl]isoxazol-3-amine]
- inhibition at 10 µM [5, 18]: 55%

Compound: COc1ccc(-c2cnn3c(NCc4ccncc4)cc(C)nc23)cc1OC [Ex. 100, 3-(3,4-dimethoxyphenyl)-5-methyl-N-(4-pyridylmethyl)pyrazolo[1,5-a]pyrimidin-7-amine]
- inhibition at 100 µM [1, 14]: 78%
- inhibition at 0.1 µM ([1]; EV30, Conc. 0.1 μM): 78%
- inhibition at 100 µM [3, 15]: 0%
- inhibition [4]: 88%
- inhibition at 100 µM [11, 19]: 0%
- inhibition [6]: 83%
- inhibition at 100 µM [13]: 81%
- inhibition [9]: 99%
- inhibition ([10]; read-out: antiviral effect, B5): 90%
- inhibition at 100 µM [12, 20]: 0%

Compound: Cc1cc(NCc2ccc(F)cc2)n2nc(C)c(-c3ccc(Cl)c(Cl)c3)c2n1 [Ex. 103, 3-(3,4-dichlorophenyl)-N-[(4-fluorophenyl)methyl]-2,5-dimethyl-pyrazolo[1,5-a]pyrimidin-7-amine]
- inhibition at 10 µM ([11]; EMCV): 74%
